# Results published in US7977387B2, “Aminobenzophenone compounds” (Leo Pharma A/S, priority 2003, dated 2011).
# Columns and labels:
# [1] = test system: LPS induced TNF-α response; assay: In vivo screening model of LPS induced TNF-α response in mice; settings: Mus musculus, mice (C3H/HeN), dosed 1 hour prior to LPS, plasma TNF-α 80-90 minutes after LPS, vs LPS treated control group, read-out: In vivo inhibition of LPS induced TNF-α production (in %)
# Protocol: In Vivo Screening Model of LPS Induced TNF-α Response in Mice
# To study the effect of compounds of the present invention in vivo, an in vivo screening model of LPS induced TNF-α response in mice was set up as follows: Groups of 6 mice (C3H/HeN, female, about 8 weeks (20 g), Bomholtgaard) were dosed with test compounds in suspension vehicle 1 hour prior to LPS administration (LPS from E. coli 055:B5, L-4005, Sigma). At time 0, the mice were dosed ip with 1.0 mg LPS/kg. After anesthetization with Hypnorm/Dormicum, the mice were bled from the periorbital venous plexus 80-90 minutes after LPS administration. The blood samples were sampled in EDTA stabilised tubes and centrifuged at 4000 rpm for 10 minutes at 4° C. The plasma level of TNF-α was analysed by ELISA. Compound 156 of WO 98/32730 was used as reference compound. The plasma level of TNF-α was determined using a sandwich ELISA. Microtiter plates were coated with a monoclonal antibody against mouse TNF-α, washed and blocked with a casein buffer. Samples of mouse TNF-α recombinant standards were added to the wells of the microtiter plates and incubated. All standards were tested in triplicate, all plasma samples in single. After sample and standard incubation, the plates were washed and incubated with biotinylated polyclonal secondary antibody against mouse TNF-α and washed. Enzyme conjugate was added to all wells and incubated. Substrate was added and the enzyme/substrate reaction stopped after 15 minutes at room temperature with 1M H2SO4. The colour development (OD) was measured at 450 nm on an ELISA reader and the background OD at 620 nm was subtracted. […] The results of the tested compounds are indicated as a percentage inhibition compared to an LPS treated control group. Compounds were tested at 10 mg/kg. The Mann-Whitney test was used to compare drug treated groups to the LPS treated control group (p<0.05).
# TNF-α = assay: Inhibition of TNF-α secretion in LPS stimulated peripheral blood mononuclear cells; type: cell-based; settings: PBMC; LPS stimulated human peripheral blood mononuclear cells, 18 hours, ELISA; read-out: The median inhibition concentration (IC50, nM) of TNF-α
# Protocol: (§1) To study the effect of compounds of the present invention in vitro, the inhibition of IL-1β and TNF-α secretion was determined using the following procedure:
# (§2) Cytokine production was measured in the media from lipopolysaccharide (LPS) stimulated peripheral blood mononuclear cells. The mononuclear cells were isolated from human peripheral blood by Lymphoprep® (Nycomed, Norway) fractionation and suspended in RPMI 1640 (growth medium) with foetal calf serum (FCS, 2%), at a concentration of 5×10^5 cells/ml. The cells were incubated in 24-well tissue culture plates in 1 ml aliquots. Test compounds were dissolved in dimethylsulfoxide (DMSO, 10 mM) and were diluted with the medium. Compounds were added to the cells for 30 minutes, then LPS ([…] final concentration) was added. The plates were incubated for 18 hours, and the concentration of IL-β and TNF-α in the medium was determined by enzyme-linked immunosorbent assays. The median inhibitory concentrations (IC50) of the compounds were calculated.
# IL-1β = assay: Inhibition of IL-1β secretion in LPS stimulated peripheral blood mononuclear cells; type: cell-based; settings: PBMC; LPS stimulated human peripheral blood mononuclear cells, 18 hours, ELISA; read-out: The median inhibition concentration (IC50, nM) of IL-1β
# Protocol: as §1, §2
SMILES,inhibition at 10 mg/kg [1] [%],IC50 (TNF-α) [nM],IC50 (IL-1β) [nM]
"Cc1cc(F)ccc1Nc1ccc(C(=O)c2cc(C(=O)NCC3CCCO3)ccc2C)c(Cl)c1 (stereo not drawn) [Compound 104, 3-[2-Chloro-4-(4-fluoro-2-methylphenylamino)benzoyl]-4-methyl-N-(tetrahydrofuran-2-ylmethyl)benzamide]",95,1.3,2
"Cc1ccc(C(=O)NCCO)cc1C(=O)c1ccc(Nc2ccc(Br)cc2N)cc1Cl [Compound 113, 3-[4-(2-Amino-4-bromophenylamino)-2-chlorobenzoyl]-N-(2-hydroxyethyl)-4-methylbenzamide]",83,1.8,4
"CCC(=O)Nc1ccc(C)c(C(=O)c2ccc(Nc3ccc(F)cc3F)cc2Cl)c1 [Compound 242, N-{3-[2-Chloro-4-(2,4-difluoro-phenylamino)-benzoyl]-4-methyl-phenyl}-propionamide]",,0.5,1.4
"COCCOCC(=O)Nc1ccc(C)c(C(=O)c2ccc(Nc3ccc(F)cc3F)cc2Cl)c1 [Compound 243, N-{3-[2-Chloro-4-(2,4-difluoro-phenylamino)-benzoyl]-4-methyl-phenyl}-2-(2-methoxy-ethoxy)-acetamide]",,1.3,2.8
"Cc1ccc(NC(=O)CCN2CCOCC2)cc1C(=O)c1ccc(Nc2ccc(F)cc2F)cc1Cl [Compound 244, N-{3-[2-Chloro-4-(2,4-difluoro-phenylamino)-benzoyl]-4-methyl-phenyl}-3-morpholin-4-yl-propionamide]",,0.5,1.3
"Cc1ccc(NC(=O)CCO)cc1C(=O)c1ccc(Nc2ccc(F)cc2F)cc1Cl [Compound 245, N-{3-[2-Chloro-4-(2,4-difluoro-phenylamino)-benzoyl]-4-methyl-phenyl}-3-hydroxy-propionamide]",,0.9,3.5
"Cc1ccc(NC(=O)c2ccccc2O)cc1C(=O)c1ccc(Nc2ccc(F)cc2F)cc1Cl [Compound 247, N-{3-[2-Chloro-4-(2,4-difluoro-phenylamino)-benzoyl]-4-methyl-phenyl}-2-hydroxy-benzamide]",,1.4,5.6
"Cc1ccc(NC(=O)CC2NC(=O)NC2=O)cc1C(=O)c1ccc(Nc2ccc(F)cc2F)cc1Cl (stereo not drawn) [Compound 248, N-{3-[2-Chloro-4-(2,4-difluoro-phenylamino)-benzoyl]-4-methyl-phenyl}-2-(2,5-dioxo-imidazolidin-4-yl)-acetamide]",,0.7,1
"Cc1ccc(NC(=O)C2CC(=O)NC(=O)N2)cc1C(=O)c1ccc(Nc2ccc(F)cc2F)cc1Cl (stereo not drawn) [Compound 249, 2,6-Dioxo-hexahydro-pyrimidine-4-carboxylic acid {3-[2-chloro-4-(2,4-difluoro-phenylamino)-benzoyl]-4-methyl-phenyl}-amide]",,1.1,1.6
"Cc1ccc(NC(=O)CCS(C)(=O)=O)cc1C(=O)c1ccc(Nc2ccc(F)cc2F)cc1Cl [Compound 252, N-{3-[2-Chloro-4-(2,4-difluoro-phenylamino)-benzoyl]-4-methyl-phenyl}-3-methanesulfonyl-propionamide]",,0.6,0.6
"CCOC(=O)CNC(=O)Nc1ccc(C)c(C(=O)c2ccc(Nc3ccc(F)cc3F)cc2Cl)c1 [Compound 261, (3-{3-[2-Chloro-4-(2,4-difluoro-phenylamino)-benzoyl]-4-methyl-phenyl}-ureido)-acetic acid ethyl ester]",,1,2.2
"COc1cccc(NC(=O)Nc2ccc(C)c(C(=O)c3ccc(Nc4ccc(F)cc4F)cc3Cl)c2)c1 [Compound 262, 1-{3-[2-Chloro-4-(2,4-difluoro-phenylamino)-benzoyl]-4-methyl-phenyl}-3-(3-methoxy-phenyl)-urea]",,0.6,2
"CCOC(=O)CCNC(=O)Nc1ccc(C)c(C(=O)c2ccc(Nc3ccc(F)cc3F)cc2Cl)c1 [Compound 265, 3-(3-{3-[2-Chloro-4-(2,4-difluoro-phenylamino)-benzoyl]-4-methyl-phenyl}-ureido)-propionic acid ethyl ester]",,0.3,1
"C=CCNC(=O)Nc1ccc(C)c(C(=O)c2ccc(Nc3ccc(F)cc3F)cc2Cl)c1 [Compound 267, 1-Allyl-3-{3-[2-chloro-4-(2,4-difluoro-phenylamino)-benzoyl]-4-methyl-phenyl}-urea]",,0.2,0.4
"CCNC(=O)Nc1ccc(C)c(C(=O)c2ccc(Nc3ccc(F)cc3F)cc2Cl)c1 [Compound 269, 1-{3-[2-Chloro-4-(2,4-difluoro-phenylamino)-benzoyl]-4-methyl-phenyl}-3-ethyl-urea]",,0.6,0.8
"CCCCNC(=O)Nc1ccc(C)c(C(=O)c2ccc(Nc3ccc(F)cc3F)cc2Cl)c1 [Compound 271, 1-Butyl-3-{3-[2-chloro-4-(2,4-difluoro-phenylamino)-benzoyl]-4-methyl-phenyl}-urea]",,0.4,1
"Cc1ccc(NC(=O)NCCc2ccccc2)cc1C(=O)c1ccc(Nc2ccc(F)cc2F)cc1Cl [Compound 272, 1-{3-[2-Chloro-4-(2,4-difluoro-phenylamino)-benzoyl]-4-methyl-phenyl}-3-phenethyl-urea]",,1.4,3.2
"Cc1ccc(NC(=O)NC(C)C)cc1C(=O)c1ccc(Nc2ccc(F)cc2F)cc1Cl [Compound 275, 1-{3-[2-Chloro-4-(2,4-difluoro-phenylamino)-benzoyl]-4-methyl-phenyl}-3-isopropyl-urea]",,0.3,5
"Cc1ccc(NC(=O)OCc2ccccc2)cc1C(=O)c1ccc(Nc2ccc(F)cc2F)cc1Cl [Compound 277, {3-[2-Chloro-4-(2,4-difluoro-phenylamino)-benzoyl]-4-methyl-phenyl}-carbamic acid benzyl ester]",,0.8,2.5
"CCOC(=O)Nc1ccc(C)c(C(=O)c2ccc(Nc3ccc(F)cc3F)cc2Cl)c1 [Compound 279, {3-[2-Chloro-4-(2,4-difluoro-phenylamino)-benzoyl]-4-methyl-phenyl}-carbamic acid ethyl ester]",,0.5,0.6
"Cc1ccc(-c2cccc(CO)c2)cc1C(=O)c1ccc(Nc2ccc(F)cc2F)cc1Cl [Compound 282, [2-Chloro-4-(2,4-difluoro-phenylamino)-phenyl]-(3′-hydroxymethyl-4-methyl-biphenyl-3-yl)-methanone]",,0.6,5.6
"CC(=O)Nc1cccc(-c2ccc(C)c(C(=O)c3ccc(Nc4ccc(F)cc4F)cc3Cl)c2)c1 [Compound 285, N-{3′-[2-Chloro-4-(2,4-difluoro-phenylamino)-benzoyl]-4′-methyl-biphenyl-3-yl}-acetamide]",,0.6,1.4
"COc1ccc(CO)cc1C(=O)c1ccc(Nc2ccc(F)cc2F)cc1Cl [Compound 335, [2-Chloro-4-(2,4-difluoro-phenylamino)-phenyl]-(5-hydroxymethyl-2-methoxy-phenyl)-methanone]",,2.5,2.7
"COc1ccc(COC(C)=O)cc1C(=O)c1ccc(Nc2ccc(F)cc2F)cc1Cl [Compound 336, Acetic acid 3-[2-chloro-4-(2,4-difluoro-phenylamino)-benzoyl]-4-methoxy-benzyl ester]",,2,5
"Cc1ccc(C(=O)O)cc1C(=O)c1ccc(Nc2ccc(F)cc2F)cc1Cl [Compound 424, 3-[2-Chloro-4-(2,4-difluorophenylamino)benzoyl]-4-methylbenzoic acid]",44,,
"Cc1ccccc1C(=O)c1ccc(Nc2ccccc2N)cc1Cl [Ref. comp. a, 4-(2-aminophenylamino)-2-chloro-2′-methylbenzophenone, reference compound]",23,,
"Cc1ccccc1C(=O)c1ccc(Nc2cccc(F)c2C)cc1Cl [Ref. comp. f, 2-Chloro-4-(3-fluoro-2-methyl-phenylamino)-2′-methylbenzophenone, reference compound]",,4,13
